Experimental data from patent US20220153732A1, “PROTEIN SECRETION INHIBITORS” (KEZAR LIFE SCIENCES, priority 2019, published 2022).
Where two headings read alike, the source gives them in different places.

Key:
Type in all cases: cell-based
[1] = system: human multiple myeloma cell line U266B1; assay: U266 Cell Viability Assay; settings: read-out: 48 hr U266 Viability Celltiter-Glo: Mean EC50
In short: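 U266B1 myeloma cells treated with compound dilutions in DMSO/media for 48 h at 37 °C, 5% CO2. Viability read by CellTiter-Glo luminescence. Stereochemically undefined structures were tested as stereoisomer mixtures.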

[2] = system: PD1-ss+10aa/Gaussia Luciferase; assay: Dox-Induced PD1-ss-Gluc Assay; settings: 293FRT/TO cells, read-out: 24 hr Dox Inducible PD1ssGluc 293FRT/TO: Mean IC50
In short: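 Stable cell line carrying PD1-ss+10aa/Gaussia luciferase cDNA under T-REx (doxycycline-inducible) control, plated the day before assay. Compound dilutions in DMSO/media containing doxycycline added and incubated at 37° C, 5% CO2. Undefined stereocentres: data refer to stereoisomer mixtures.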

[3] = system: TNFα-FL/Gaussia Luciferase; assay: Dox Induced TNFα-FL-Gluc Assay; settings: 293FRT/TO cells, read-out: 24 hr Dox Inducible TNFaFLGluc 293FRT/TO: Mean IC50
In short: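 A stable T-REx cell line carrying doxycycline-inducible TNFα-FL/Gaussia luciferase was plated the day before assay. Compound dilutions in DMSO/media containing doxycycline were then added and incubated at 37° C, 5% CO2.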

[4] = system: human multiple myeloma cell line NCI-H929; assay: H929 Cell Viability Assay; settings: read-out: 48 hr H929 Viability Celltiter-Glo: Mean EC50
Method: Plates were incubated at 37° C., 5% CO2 for 48 hours. After 48 hours, Celltiter-Glo® (Promega) was added to each well and luciferase signal was quantified using Tecan Infinite M1000 Pro for cell viability determination.
For chemical structures that include one or more stereoisomers, but are illustrated without indicating stereochemistry, the assay data refers to a mixture of stereoisomers.

[5] = system: IL-2-FL/Gaussia Luciferase; assay: Dox Induced IL2-FL-Gluc Assay; settings: 293FRT/TO cells, read-out: 24 hr Dox Inducible IL2FLGIuc 293FRT/TO: Mean IC50
In short: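 Stable T-REx cell line expressing doxycycline-inducible IL-2-FL/Gaussia luciferase cDNA, plated the day before assay. Compound dilutions in DMSO/media containing doxycycline added and incubated at 37° C., 5% CO2. Unspecified stereochemistry means data refer to a stereoisomer mixture.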

[6] = system: HER3-ss+4aa/Gaussia Luciferase; assay: Dox-Induced Her3-ss-Gluc Assay; settings: 293FRT/TO cells, read-out: 24 hr Dox Inducible Her3(ss + 4)Gluc 293FRT/TO: Mean IC50
In short: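 Stable T-REx cell line carrying a doxycycline-regulated HER3-ss+4aa/Gaussia luciferase insert, plated the day before assay. Compound dilutions in DMSO/media with doxycycline added, then incubated at 37° C., 5% CO2. Stereoisomer mixtures tested where stereochemistry is not drawn.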

[7] = U-266, 48 hr, U266B1 cells, Celltiter-Glo
[8] = 24 hr doxycycline induction, Gaussia luciferase signal
[9] = 48 hr, NCI-H929 cells, Celltiter-Glo

| Compound | EC50 [1, 7] [µM] | IC50 [2, 8] [µM] | IC50 [3, 8] [µM] | EC50 [4, 9] [µM] | IC50 [5, 8] [µM] | IC50 [6, 8] [µM] | IC50 ([2]; 24 hr, doxycycline-induced) [µM] | IC50 ([3]; 24 hr, doxycycline-induced) [µM] | IC50 ([5]; 24 hr, doxycycline-induced) [µM] | IC50 ([6]; 24 hr, doxycycline-induced) [µM] | EC50 ([1]; U-266, 48 h) [µM] | EC50 ([4]; NCI-H929, 48 h) [µM] |
| --- | --- | --- | --- | --- | --- | --- | --- | --- | --- | --- | --- | --- |
| O=C(Nc1nc(/C=C/c2ccc(F)cc2)cs1)c1cccn1Cc1ccncc1 [Compound A220, N-(4-(4-fluorostyryl)thiazol-2-yl)-1-(pyridin-4-ylmethyl)-1H-pyrrole-2-carboxamide] | > 25 | 0.086 | 3.75 | > 25 | 0.628 | 0.329 | – | – | – | – | – | – |
| CC(C)OC(C)(C)c1csc(NC(=O)c2cccn2Cc2cccnc2)n1 [Compound A87, N-(4-(2-isopropoxypropan-2-yl)thiazol-2-yl)-1-(pyridin-3-ylmethyl)-1H-pyrrole-2-carboxamide] | > 25 | 8.13 | > 25 | > 25 | 8.59 | > 25 | – | – | – | – | – | – |
| O=C(Nc1nc(/C=C/Cc2ccccc2)cs1)c1cccn1CCCc1ccncc1 [Compound A217, N-(4-(3-phenylprop-1-en-1-yl)thiazol-2-yl)-1-(3-(pyridin-4-yl)propyl)-1H-pyrrole-2-carboxamide] | > 25 | 0.245 | 3.53 | > 21.5 | 0.943 | 0.425 | – | – | – | – | – | – |
| COc1cnc(/C=C/c2csc(NC(=O)c3cccn3Cc3ccncc3)n2)c(F)c1 [Compound A299] | > 25 | – | – | > 25 | – | – | 0.007 | > 25 | 0.219 | 0.214 | – | – |
| CC(/C=C/c1csc(NC(=O)c2cccn2Cc2ccncc2)n1)c1ccccc1 (stereo not drawn) [Compound A251] | > 25 | 0.125 | 1.42 | 11.7 | 0.549 | 0.344 | – | – | – | – | – | – |
| COCc1cnc(NC(=O)c2cccn2Cc2ccncc2)s1 [Compound A94] | > 25 | 14.6 | > 25 | > 25 | > 25 | > 25 | – | – | – | – | – | – |
| O=C(Nc1nc(/C=C/c2ccc3c(c2)OC(F)(F)O3)cs1)c1cccn1Cc1ccncc1 [Compound A235, N-(4-(2-(2,2-difluorobenzo[d][1,3]dioxo1-5-yl)vinyl)thiazol-2-yl)-1-(pyridin-4-ylmethyl)-1H-pyrrole-2-carboxamide] | > 25 | 0.063 | > 25 | 4.15 | 0.237 | 0.145 | – | – | – | – | – | – |
| C/C(=C\c1csc(NC(=O)c2cccn2Cc2ccncc2)n1)c1ccccc1 [Compound A252] | > 25 | 0.53 | 6.93 | 14 | 1.28 | 1.13 | – | – | – | – | – | – |
| CC(C)OC(C)(C)c1csc(NC(=O)c2cccn2CCOc2ccncc2)n1 [Compound A226, N-(4-(2-isopropoxypropan-2-yl)thiazol-2-yl)-1-(2-(pyridin-4-yloxy)ethyl)-1H-pyrrole-2-carboxamide] | > 25 | 0.302 | 7.08 | 11.9 | 0.32 | 0.426 | – | – | – | – | – | – |
| O=C(Nc1nc(/C=C/c2ccncc2)cs1)c1cccn1Cc1ccncc1 [Compound A166, N-(4-(2-(pyridin-4-yl)vinyl)thiazol-2-yl)-1-(pyridin-4-ylmethyl)-1H-pyrrole-2-carboxamide] | > 25 | 13.5 | > 25 | > 25 | > 25 | > 25 | – | – | – | – | – | – |
| CC(C)OC(C)(C)c1csc(NC(=O)c2c(Cl)ccn2Cc2ccncc2)n1 [Compound A86, 3-chloro-N-(4-(2-isopropoxypropan-2-yl)thiazol-2-yl)-1-(pyridin-4-ylmethyl)-1H-pyrrole-2-carboxamide] | > 25 | 8 | > 25 | > 25 | > 25 | > 25 | – | – | – | – | – | – |
| O=C(Nc1nc([C@H]2CCCN2Cc2ccccc2)cs1)c1cccn1Cc1ccncc1 [Compound A278] | > 25 | 0.538 | 5 | > 23.9 | 1.27 | 1.13 | – | – | – | – | – | – |
| CC(C)c1cnc(NC(=O)c2cccn2Cc2ccncc2)s1 [Compound A55] | > 25 | 1.39 | > 25 | > 25 | 3.99 | 3.16 | – | – | – | – | – | – |
| O=C(Nc1nc(C2=CCN(Cc3ccccc3)CC2)cs1)c1cccn1Cc1ccncc1 [Compound A259] | – | 0.516 | > 25 | – | 10.5 | 7.11 | – | – | – | – | > 25 | > 25 |

Further lines, with some results ahead:

| EC50 [1, 7] [µM] | IC50 [2, 8] [µM] | IC50 [3, 8] [µM] | EC50 [4, 9] [µM] | IC50 [5, 8] [µM] | IC50 [6, 8] [µM] | IC50 ([2]; 24 hr, doxycycline-induced) [µM] | IC50 ([3]; 24 hr, doxycycline-induced) [µM] | IC50 ([5]; 24 hr, doxycycline-induced) [µM] | IC50 ([6]; 24 hr, doxycycline-induced) [µM] | Compound | EC50 ([1]; U-266, 48 h) [µM] | EC50 ([4]; NCI-H929, 48 h) [µM] |
| --- | --- | --- | --- | --- | --- | --- | --- | --- | --- | --- | --- | --- |
| > 25 | > 25 | > 25 | > 25 | > 25 | > 25 | – | – | – | – | CC(C)OC(C)(C)c1csc(NC(=O)c2ccc(C(=O)N(C)C)n2Cc2ccncc2)n1 [Compound A107, N2-(4-(2-isopropoxypropan-2-yl)thiazol-2-yl)-N5,N5-dimethyl-1-(pyridin-4-ylmethyl)-1H-pyrrole-2,5-dicarboxamide] | – | – |
| > 25 | 0.288 | > 25 | 18.7 | 1.87 | 1.12 | – | – | – | – | O=C(Nc1nc(/C=C/c2ccc3ncccc3c2)cs1)c1cccn1Cc1ccncc1 [Compound A237] | – | – |
| 13.7 | 0.048 | 0.946 | 8.6 | 0.443 | 0.234 | – | – | – | – | O=C(Nc1nc(/C=C/c2ccc(C(F)(F)F)cc2)cs1)c1cccn1Cc1ccncc1 [Compound A219, 1-(pyridin-4-ylmethyl)-N-(4-(4-(trifluoromethyl)styryl)thiazol-2-yl)-1H-pyrrole-2-carboxamide] | – | – |
| > 25 | 0.141 | > 25 | 20.5 | > 25 | 0.296 | – | – | – | – | N#Cc1ccc(/C=C/c2csc(NC(=O)c3cccn3Cc3ccncc3)n2)cc1 [Compound A224, N-(4-(4-cyanostyryl)thiazol-2-yl)-1-(pyridin-4-ylmethyl)-1H-pyrrole-2-carboxamide] | – | – |
| > 25 | – | – | > 25 | – | – | > 25 | > 25 | > 25 | > 25 | CC(C)c1csc(NC(=O)[C@@H]2CCCN2C(=O)c2ccncc2)n1 [Compound B20, (S)-1-isonicotinoyl-N-(4-isopropylthiazol-2-yl)pyrrolidine-2-carboxamide] | – | – |
| > 25 | 3.18 | > 25 | 24.9 | 4.15 | 5.26 | – | – | – | – | CC(C)OC(C)(C)c1csc(NC(=O)c2cccn2Cc2ccccc2)n1 [Compound A79, 1-benzyl-N-(4-(2-isopropoxypropan-2-yl)thiazol-2-yl)-1H-pyrrole-2-carboxamide] | – | – |
| > 25 | 0.325 | 4.06 | 18.7 | 0.769 | 0.819 | – | – | – | – | O=C(Nc1nc([C@@H]2CCCN2Cc2ccccc2)cs1)c1cccn1Cc1ccncc1 [Compound A277] | – | – |
| > 25 | 0.058 | 0.808 | 3.85 | 0.071 | 0.093 | – | – | – | – | CC(C)(OCC1CCCCC1)c1csc(NC(=O)c2cccn2Cc2ccncc2)n1 [Compound A7, N-(4-(2-(cyclohexylmethoxy)propan-2-yl)thiazol-2-yl)-1-(pyridin-4-ylmethyl)-1H-pyrrole-2-carboxamide] | – | – |
| > 25 | 0.104 | 1.62 | 9.46 | 0.197 | 0.202 | – | – | – | – | CC(C)(OCc1ccccc1)c1csc(NC(=O)c2cccn2Cc2ccncc2)n1 [Compound A9, N-(4-(2-(benzyloxy)propan-2-yl)thiazol-2-yl)-1-(pyridin-4-ylmethyl)-1H-pyrrole-2-carboxamide] | – | – |
